The record followed here is US6403623B1, “Heterocyclic antituberculosis agents” (Unuversity of Notre Dame du Lac, priority 1999, dated 2002).

The test system of this test is M. tuberculosis H37R. Description: microbe, parasite or virus in culture. Format: cell-based. As to conditions: Mycobacterium tuberculosis, in vitro, concentration of 12.5 μg/mL, read-out: inhibition of the growth of M. tuberculosis H37R.

Usually inhibition stands for how much of the control response was suppressed. Take `O=C(OCc1ccccc1)[C@@H]1COC(c2ccccc2OCc2ccccc2)=N1` [Example 1, (S)-Benzyl 2-[2-(Benzyloxy)phenyl]-2-oxazoline-4-carboxylate]: the inhibition at 12.5 µg/mL was 98%.
